Here are results for five compounds from patent US20050142534A1, “Methods and compositions related to a matrix chip” (priority 2003, published 2005).

Holding throughout (assay type): cell-based
One assay concerns tumor nest. Description: Perfusion of tumor nests by neutral fluorescent dyes and dextran conjugates. To be noted: microinjected into a sinusoid of a tumor nest; fluorescence microscopy. The text has this:
Invasive tumor cells grown on thick layers of extracellular matrix protein form tumor nests in vitro and can be used as model systems for the evaluation of the efficacy of anti-cancer drugs against similar structures in vivo. Fluorescence microscopy images of a fluorescent dye Texas Red microinjected into a sinusoid of a tumor nest will typically show the movement of the dye into the perfusion channels between clumps of tumor cells in the tumor nest. […] This same pattern of perfusion is evident when neutral fluorescent dyes are applied to tissues or layers of matrix proteins containing tumor nests rather than being injected into the nests.

The subject of assay [1] is normal vasculogenic endothelial cells. The experiment in a line: Formation of vasculogenic cords by normal endothelial cells on matrix. To be noted: normal endothelial cells on thin and thick matrix; agent added to the culture medium. The text has this: With the specific exception of normal vasculogenic endothelial cells, normal cells and cancer cells of low invasive potential form clusters containing small numbers of cells when grown to less than confluent density on serum proteins absorbed to a solid support or on layers of extracellular matrix ranging from less than 50 microns to over 1000 microns in thickness. […] Normal vasculogenic […] cells grown to confluent density on absorbed serum proteins form characteristic “cobblestone” monolayers. These normal endothelial cells form distinctive cord-like structures when grown on thin matrix and networks of these cords when grown on thick matrix. The formation of these vasculogenic cords, which are known to be precursors to the formation of blood vessels, is prevented by the addition of anti-angiogenic agents such as the drug TNP-470 (a derivative of flimagillin) to the culture medium.

The subject of assay [2] is normal cells and abnormal cells. Description: Inverted slide-based nuclease digestion test with thiol reagent. The settings on record: thiol reagent added to the treatment solution. As to the method: Certain embodiments of the invention include a slide-based test. One example of a slide based test includes obtaining a test sample, (e.g., scraping cells off of their culture plates); suspending the sample in phosphate buffered saline (PBS); administering a drop of the cell suspension on a laminin coated slide. The sample administered to the coated slide is allowed to air dry (about 15 minutes). The dried slide is subjected to digestion with ALU (about 15 minutes). After digestion the slide is stained with ethidium bromide (1 minute) and imaged under fluorescence. Aside from being fast, this method is an improvement on standard “smear” methods (like Pap tests) in that it is insensitive to the air-drying artifacts that cause major problems with the standard methods and necessitate using preservatives and fixatives. An alternative sampling technique includes depositing cells by contacting the slide with a tissue block.
Thus, the result of the method is inverted. Inversion of the test can be produced by adding a thiol reagent such as DTT to the treatment solution.

The subject of assay [3] is tumor cells grown on thin matrix. Description: Labeling of nuclei of tumor cells grown on thin matrix by DNA-binding agents. The text has this: Rather, they form clusters or sheets of cells with no evidence of the formation of perfusion channels. […] […] These and other similar experiments reveal that polar agents such as bisbenzimide and doxorubicin are systematically excluded from the cells comprising tumor nests while these cells are accessible to neutral molecules of similar molecular weights.

The subject of assay [4] is invasive tumor cells forming tumor nests. Description: Labeling of nuclei of invasive tumor cells in tumor nests on thick matrix by DNA-binding agents. The settings on record: even after prolonged exposure. The text has this:
Rather, they form clusters or sheets of cells with no evidence of the formation of perfusion channels. […] Invasive tumor cells grown in vitro on thick matrix and stained by the addition of bisbenzimide to the culture medium show staining restricted to the nuclei of the cells on the peripheries of the individual cell clusters forming the tumor nest. These and other similar experiments reveal that polar agents such as bisbenzimide and doxorubicin are systematically excluded from the cells comprising tumor nests while these cells are accessible to neutral molecules of similar molecular weights.

Consider Texas Red, for which the “movement of dye into perfusion channels of tumor nest” value in the assay with tumor nest is reported as “the tumor nest is permeated by the dye”.
Consider `CO[C@@H]1[C@H](OC(=O)NC(=O)CCl)CC[C@]2(CO2)[C@H]1[C@@]1(C)O[C@@H]1CC=C(C)C` [TNP-470], for which the “formation of vasculogenic cords” value in assay [1] is “prevented”.
On to `O[C@@H](CS)[C@@H](O)CS` [DTT], for which the “effect on result of nuclease digestion test” value in assay [2] was “normal cells remain intact and the abnormal cells are degraded”.
Regarding `CN1CCN(c2ccc3[nH]c(-c4ccc5[nH]c(-c6ccc(O)cc6)nc5c4)nc3c2)CC1` [bisbenzimide], the labeling of nuclei result in assay [3] is “rapidly and efficiently labeled”; in assay [4], “only the nuclei of cells on the peripheries of the tumor cell clusters forming the nests are labeled”.
Turning to `COc1cccc2c1C(=O)c1c(O)c3c(c(O)c1C2=O)C[C@@](O)(C(=O)CO)C[C@@H]3O[C@H]1C[C@H](N)[C@H](O)[C@H](C)O1` [doxorubicin], the labeling of nuclei entry in assay [3] was “rapidly and efficiently labeled”; in assay [4], “only the nuclei of cells on the peripheries of the tumor cell clusters forming the nests are labeled”.
